Experimental data from patent publication US12152016B2, “Aryl hydrocarbon receptor modulators and uses thereof” (Beth Israel Deaconess Medical Center, Inc., priority 2018, dated 2024).
pEC50: −log10 of the molar value. “Also recorded” adds a separate entry of the source.

Tests used:
Type in all cases: cell-based
[1] = target: T1, aryl hydrocarbon receptor (AHR) (Mus musculus, UniProt P30561); experiment: XRE-driven luciferase reporter assay, mouse Hepa1c1c7
T1 construct: Transfection was performed with 150 ng XRE-luciferase plasmid (Promega); endogenous in cells; host or cells: Hepa-1c1c7 (mouse hepatoma cell line)
T1 sequence (P30561 10-805 limits assumed): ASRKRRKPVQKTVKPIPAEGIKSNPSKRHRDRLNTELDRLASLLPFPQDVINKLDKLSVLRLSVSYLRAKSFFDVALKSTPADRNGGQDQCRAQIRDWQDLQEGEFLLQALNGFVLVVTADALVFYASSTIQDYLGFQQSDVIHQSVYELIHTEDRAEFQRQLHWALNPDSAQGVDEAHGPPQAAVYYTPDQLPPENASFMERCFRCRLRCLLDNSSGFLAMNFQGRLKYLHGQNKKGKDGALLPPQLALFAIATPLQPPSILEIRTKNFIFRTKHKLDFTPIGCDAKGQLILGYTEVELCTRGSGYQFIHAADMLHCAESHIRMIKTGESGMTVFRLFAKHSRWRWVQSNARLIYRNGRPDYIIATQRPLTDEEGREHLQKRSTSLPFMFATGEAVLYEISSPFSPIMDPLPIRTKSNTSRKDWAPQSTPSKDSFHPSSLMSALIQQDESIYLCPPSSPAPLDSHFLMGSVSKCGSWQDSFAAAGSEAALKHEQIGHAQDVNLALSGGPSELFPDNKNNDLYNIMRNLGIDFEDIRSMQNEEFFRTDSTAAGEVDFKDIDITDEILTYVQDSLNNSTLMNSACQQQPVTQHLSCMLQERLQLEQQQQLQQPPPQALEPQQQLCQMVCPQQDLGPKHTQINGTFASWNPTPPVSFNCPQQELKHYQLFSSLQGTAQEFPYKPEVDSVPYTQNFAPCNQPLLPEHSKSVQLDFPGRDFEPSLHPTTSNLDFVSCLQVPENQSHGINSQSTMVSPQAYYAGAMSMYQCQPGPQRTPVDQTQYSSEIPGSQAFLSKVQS
T1 sequence (P53762 whole entry partner): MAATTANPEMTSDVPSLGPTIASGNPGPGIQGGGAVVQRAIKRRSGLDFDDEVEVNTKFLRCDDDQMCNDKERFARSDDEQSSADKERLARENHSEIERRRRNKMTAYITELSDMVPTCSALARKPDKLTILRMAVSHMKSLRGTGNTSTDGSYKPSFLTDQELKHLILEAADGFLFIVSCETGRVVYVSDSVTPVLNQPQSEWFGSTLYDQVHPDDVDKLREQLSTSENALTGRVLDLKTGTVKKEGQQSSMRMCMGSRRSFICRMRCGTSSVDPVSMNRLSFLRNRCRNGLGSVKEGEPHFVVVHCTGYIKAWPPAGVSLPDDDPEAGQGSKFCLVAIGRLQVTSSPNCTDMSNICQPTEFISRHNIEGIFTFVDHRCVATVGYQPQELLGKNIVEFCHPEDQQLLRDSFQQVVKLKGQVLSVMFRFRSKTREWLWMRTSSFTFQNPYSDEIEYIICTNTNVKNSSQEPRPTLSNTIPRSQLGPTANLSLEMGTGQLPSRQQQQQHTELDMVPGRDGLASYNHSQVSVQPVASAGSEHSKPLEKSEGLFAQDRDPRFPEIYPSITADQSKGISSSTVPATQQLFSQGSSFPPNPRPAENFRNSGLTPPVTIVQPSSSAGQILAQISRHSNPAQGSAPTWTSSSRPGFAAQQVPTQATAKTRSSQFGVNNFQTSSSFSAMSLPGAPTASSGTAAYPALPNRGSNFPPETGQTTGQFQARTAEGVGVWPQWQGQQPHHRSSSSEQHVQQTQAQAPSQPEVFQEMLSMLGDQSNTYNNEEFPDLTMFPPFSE
Protocol: Human HepG2 or mouse Hepa-1c1c7 cells were seeded in 96 well opaque plates at 75,000 cells per well in full medium (DMEM+10% FBS) for 24 hours. Transfection was performed with 150 ng XRE-luciferase plasmid (Promega) with 4:1 Fugene to DNA ratio for 18 hours in Opti-MEM. Transfected cells were treated with AhR agonist (10^−5-10^−12) for 4.5 h in full medium. Cells were lysed and luciferase was activated using the Luciferase Assay System (Promega). Luminescence signals were measured with a FluroStar Omega microplate reader. Luminescence signals of compound treated groups were normalized to vehicle (DMSO) treated control and plotted as concentration dependent fold changes.

[2] = target: T2, AhR (Mus musculus, UniProt P30561); experiment: AhR nuclear translocation assay, mouse Hepa-1c1c7; settings: mouse Hepa-1c1c7, 10 μM, 90 minutes
T2 construct: endogenous in cells; host or cells: Hepa-1c1c7 (mouse hepatoma cell line)
T2 sequence (P30561 10-805 limits assumed): as the sequence (P30561 10-805 limits assumed) above
T2 sequence (P53762 whole entry partner): as the sequence (P53762 whole entry partner) above
Protocol: (§1) Mouse Hepa-1c1c7 or human HepG2 cells were seeded in 8 well chamber slides followed by 24 hours incubation in tryptophan deficient media (HBSS with Ca^2+ and Mg^2+, 10% heat inactivated FBS, 1× non-essential amino acids, 1× sodium pyruvate, 4.5 g/L glucose). Cells were treated with vehicle control (DMSO) or 10 μM ITE, compound 108, or compound 109 for 90 minutes in tryptophan deficient media. Following treatment, cells were fixed in 4% formaldehyde and processed according to standard immunofluorescence staining protocol. Primary anti-AhR antibody was applied at 1:100 dilution (Enzo, BML-SA210) and Alexa488 conjugated secondary antibody was applied at 1:500 dilution (Cell Signaling, 4412S). Actin was stained using Alexa 568 conjugated Phalloidin (Fisher). Samples were mounted in anti-fade mounting medium supplemented with DAPI for nuclear staining and imaged with confocal microscopy (Leica SP5×MP, 63× oil lens).

[3] = target: T3, AhR (Homo sapiens, UniProt P35869); experiment: AhR nuclear translocation assay, human HepG2; settings: human HepG2, 10 μM, 90 minutes
T3 construct: endogenous in cells; host or cells: HepG2 (human liver cancer cell line)
T3 sequence (P35869 11-848): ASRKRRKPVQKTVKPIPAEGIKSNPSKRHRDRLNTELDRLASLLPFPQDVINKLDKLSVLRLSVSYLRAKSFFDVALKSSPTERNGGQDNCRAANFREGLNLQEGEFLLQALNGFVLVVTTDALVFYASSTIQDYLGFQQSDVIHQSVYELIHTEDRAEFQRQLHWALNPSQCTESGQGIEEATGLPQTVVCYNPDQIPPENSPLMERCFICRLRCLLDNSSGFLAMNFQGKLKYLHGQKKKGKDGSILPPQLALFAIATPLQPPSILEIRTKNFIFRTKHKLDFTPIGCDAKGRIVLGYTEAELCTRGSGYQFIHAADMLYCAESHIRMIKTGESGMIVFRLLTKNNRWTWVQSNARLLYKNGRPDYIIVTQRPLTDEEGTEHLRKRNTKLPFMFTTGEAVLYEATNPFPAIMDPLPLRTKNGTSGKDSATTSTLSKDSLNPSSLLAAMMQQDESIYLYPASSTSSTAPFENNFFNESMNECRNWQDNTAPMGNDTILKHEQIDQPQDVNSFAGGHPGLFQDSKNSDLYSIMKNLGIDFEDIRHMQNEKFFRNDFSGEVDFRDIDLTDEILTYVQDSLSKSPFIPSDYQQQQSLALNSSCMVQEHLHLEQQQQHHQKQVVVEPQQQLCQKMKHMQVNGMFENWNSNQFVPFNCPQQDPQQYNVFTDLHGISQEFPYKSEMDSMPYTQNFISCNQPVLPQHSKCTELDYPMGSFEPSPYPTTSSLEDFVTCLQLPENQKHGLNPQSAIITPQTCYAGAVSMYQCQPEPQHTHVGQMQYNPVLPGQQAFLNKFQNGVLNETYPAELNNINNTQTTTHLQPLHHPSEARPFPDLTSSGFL
Protocol: as §1

[4] = test system: cyp1a1; experiment: cyp1a1 expression by q-PCR in mouse Hepa-1c1c7 cells; settings: mouse Hepa-1c1c7, 10 nM-10 μM, 8 hours
Protocol: RNA was extracted using TRIzol (Invitrogen) following manufacturer's instructions and 0.1 μg of RNA was converted to cDNA using a high capacity cDNA reverse transcription kit (Invitrogen). qPCR was performed on the Applied Biosystems 7900 using TaqMan® Universal PCR Master Mix (Life Technologies) with TaqMan® (Life Technologies) primers against cyp1a1 (Mm00487218_m1), AhR (Mm00478932_m1), IL-22 (Mm01226722_g1), Foxp3 (Mm00475162_m1), IL-10 (Mm01288386_m1), TNF-a (Mm00443258_m1), IFN-r (Mm01168134_m1). The fold increase from experimental groups to control was calculated using the delta-delta CT method with 18S (Mm00446186_m1) as an internal reference gene. In vitro and in vivo activation of the AhR singling pathway was confirmed by q-PCR characterization of cyp1a1. For in vitro induction, mouse Hepa-1c1c7 were cultured to confluence in 24 well plates in full DMEM followed by 24 hours incubation in tryptophan deficient media. Cells were treated with vehicle control (DMSO), ITE, compound 108, or compound 109 (10 nM-10 μM) for 8 hours in tryptophan deficient media. At the end of treatment, cells were lysed in TRIzol for RNA isolation. To monitor in vivo induction, (0.1-1000 μg) compound 109 was given per mouse via oral gavage in 100 μl of vehicle (1% HPMC, 1% polysorbate 80). After 12 hours, liver, colon, spleen and leukocytes from blood were collected and lysed in TRIzol (Invitrogen) for q-PCR analysis.

In the case of `N#Cc1cccc(C(=O)c2c[nH]c3ccccc23)n1` [Compound 108, 6-(1H-indole-3-carbonyl)pyridine-2-carbonitrile], the pEC50 [1] was 7.03, the “XRE luciferase Emax (fold)” value [1] was 86 fold and the AhR nuclear translocation [2] was “localized in the nucleus; also recorded: rapid nuclear enrichment of AhR”. The AhR nuclear translocation [3] was “localized in the nucleus; also recorded: rapid nuclear enrichment of AhR” and the “cyp1a1 expression (qPCR)” value [4] was “induced AhR-dependent cyp1a1 expression; also recorded: dose dependent induction of cyp1a1 expression”.
